Experimental data reported in US10316017B2, “COT modulators and methods of use thereof” (Gilead Sciences, Inc., priority 2015, dated 2019).
Like-named read-outs stand apart in the source and are kept apart here.

Tests used:
[1] = test system: TNFα production in LPS-stimulated human monocytes; test: Cot Monocyte TNFα Cell Based Assay; conditions: Homo sapiens, Monocyte, TNFα in LPS-stimulated human monocytes; read-out: EC50 TNF
Procedure, shortened: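 TR-FRET read-out of total secreted TNFα, normalized as % control (unstimulated = 0%, LPS-stimulated = 100%). Cells (5,000/well) were exposed to compound 1 h at 37 °C, then to 50 pg/ml LPS for a further 4 h.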

[2] = target: T1, human Cot catalytic domain (30-397 amino acids) (Homo sapiens, UniProt P41279); test: High Throughput Cot Biochemical Assay (KinEASE TR-FRET); conditions: read-out: IC50 HTRF
T1 construct: Purified recombinant human Cot catalytic domain (30-397 amino acids) was purchased from Cama Biosciences; purchased Cama Biosciences (so in the source)
Procedure, shortened: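 TR-FRET readout: Eu-labeled phospho-specific antibody binds XL665-tagged STK3 peptide after phosphorylation by Cot (aa 30-397, 5 nM). Conditions: 400 μM ATP, 1 μM peptide, MOPS pH 7.0 buffer with MgOAc, DTT, BSA, NP-40, glycerol; 0.1% DMSO.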

[3] = Cot KinEASE TR-FRET (HTRF) biochemical assay, 400 μM ATP
[4] = Cot biochemical HTRF (KinEASE TR-FRET) assay

T1 sequence (P41279 30-397): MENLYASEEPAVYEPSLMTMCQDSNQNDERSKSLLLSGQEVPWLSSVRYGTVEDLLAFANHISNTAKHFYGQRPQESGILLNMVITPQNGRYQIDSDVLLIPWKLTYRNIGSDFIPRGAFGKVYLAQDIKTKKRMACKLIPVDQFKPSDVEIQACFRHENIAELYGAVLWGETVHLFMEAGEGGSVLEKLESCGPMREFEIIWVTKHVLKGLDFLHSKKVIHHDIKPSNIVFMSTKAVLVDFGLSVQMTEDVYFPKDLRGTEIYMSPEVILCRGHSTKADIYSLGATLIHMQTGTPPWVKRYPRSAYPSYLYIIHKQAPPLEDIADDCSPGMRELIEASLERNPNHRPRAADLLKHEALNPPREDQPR

EC50 [1] [nM]	IC50 [2, 3] [nM]	IC50 [2, 4] [nM]	Compound
809	50	–	[2H][C@](Nc1cc(Cl)c2ncc(C#N)c(Nc3cnc(F)c(F)c3)c2c1)(c1ccc(Cl)cc1)c1c[nH]nn1 [Example 387, (S)-8-chloro-6-(((4-chlorophenyl)(1H-1,2,3-triazol-4-yl)methyl-d)amino)-4-((5,6-difluoropyridin-3-yl)amino)quinoline-3-carbonitrile]
1260	83	–	N#Cc1cnc2c(Cl)cc(N[C@@H](c3ccc(F)cc3)c3cn(-c4ccncc4)nn3)cc2c1Nc1cnc(F)c(F)c1 [Example 388, (S)-8-chloro-4-((5,6-difluoropyridin-3-yl)amino)-6-(((4-fluorophenyl)(1-(pyridin-4-yl)-1H-1,2,3-triazol-4-yl)methyl)amino)quinoline-3-carbonitrile]
817	37	–	N#Cc1cnc2c(Cl)cc(N[C@@H](c3ccc(F)cc3)c3cn(-c4cccnc4)nn3)cc2c1Nc1cnc(F)c(F)c1 [Example 389, (S)-8-chloro-4-((5,6-difluoropyridin-3-yl)amino)-6-(((4-fluorophenyl) (1-(pyridin-3-yl)-1H-1,2,3-triazol-4-yl)methyl)amino)quinoline-3-carbonitrile]
318	30	–	CC[C@@H](Nc1c(C#N)cnc2c(Cl)cc(N[C@@H](c3ccc(F)cc3)c3cn(-c4ccncc4)nn3)cc12)c1ccccc1 [Example 390, 8-chloro-6-(((S)-(4-fluorophenyl)(1-(pyridin-4-yl)-1H-1,2,3-triazol-4-yl)methyl)amino)-4-(((R)-1-phenylpropyl)amino)quinoline-3-carbonitrile]
214	17	–	CC[C@@H](Nc1c(C#N)cnc2c(Cl)cc(N[C@@H](c3ccc(F)cc3)c3cn(-c4cccnc4)nn3)cc12)c1ccccc1 [Example 391, 8-chloro-6-(((S)-(4-fluorophenyl)(1-(pyridin-3-yl)-1H-1,2,3-triazol-4-yl)methyl)amino)-4-(((R)-1-phenylpropyl)amino)quinoline-3-carbonitrile]
333	179	–	CC(C)(C)CNc1c(C#N)cnc2c(Cl)cc(N[C@@H](c3ccc(F)cc3)c3cn(-c4ccncc4)nn3)cc12 [Example 393, (S)-8-chloro-6-(((4-fluorophenyl)(1-(pyridin-4-yl)-1H-1,2,3-triazol-4-yl)methyl)amino)-4-(neopentylamino)quinoline-3-carbonitrile]
160	36	–	CC(C)(C)CNc1c(C#N)cnc2c(Cl)cc(N[C@@H](c3ccc(F)cc3)c3cn(-c4cccnc4)nn3)cc12 [Example 394, (S)-8-chloro-6-(((4-fluorophenyl)(1-(pyridin-3-yl)-1H-1,2,3-triazol-4-yl)methyl)amino)-4-(neopentylamino)quinoline-3-carbonitrile]
273	47	–	CC(C)(C)CNc1c(C#N)cnc2c(Cl)cc(N[C@@H](c3ccc(F)cc3)c3cn(-c4ccccc4)nn3)cc12 [Example 395, (S)-8-chloro-6-(((4-fluorophenyl)(1-phenyl-1H-1,2,3-triazol-4-yl)methyl)amino)-4-(neopentylamino)quinoline-3-carbonitrile]
726	125	–	CCC(Nc1c(C#N)cnc2c(Cl)cc(N[C@@H](c3ccc(F)cc3)c3c[nH]nn3)cc12)c1ccccc1F (stereo partly drawn) [Example 397, 8-chloro-6-(((S)-(4-fluorophenyl)(1H-1,2,3-triazol-4-yl)methyl)amino)-4-((1-(2-fluorophenyl)propyl)amino) quinoline-3-carbonitrile]
1050	28	–	CC1(CNc2c(C#N)cnc3c(Cl)cc(N[C@@H](c4ccc(F)cc4)c4c[nH]nn4)cc23)CCOCC1 [Example 398, (S)-8-chloro-6-(((4-fluorophenyl)(1H-1,2,3-triazol-4-yl)methyl)amino)-4-(((4-methyltetrahydro-2H-pyran-4-yl)methyl)amino)quinoline-3-carbonitrile]
891	38	–	CC(C)C(C)(C)CNc1c(C#N)cnc2c(Cl)cc(N[C@@H](c3ccc(F)cc3)c3c[nH]nn3)cc12 [Example 399, (S)-8-chloro-6-(((4-fluorophenyl)(1H-1,2,3-triazol-4-yl)methyl)amino)-4-((2,2,3-trimethylbutyl)amino) quinoline-3-carbonitrile]
1230	47	–	CC(C)(C)CNc1c(C#N)cnc2c(Cl)cc(N[C@@H](c3ccc(F)cc3)c3c[nH]nn3)cc12 [Example 400, (S)-8-chloro-6-(((4-fluorophenyl)(1H-1,2,3-triazol-4-yl)methyl)amino)-4-(neopentylamino) quinoline-3-carbonitrile]
4790	758	–	N#Cc1cnc2c(Cl)cc(N[C@@H](c3ccc(F)cc3)c3c[nH]nn3)cc2c1NCc1cscn1 [Example 401, (S)-8-chloro-6-(((4-fluorophenyl)(1H-1,2,3-triazol-4-yl)methyl)amino)-4-((thiazol-4-ylmethyl)amino)quinoline-3-carbonitrile]
3650	353	–	N#Cc1cnc2c(Cl)cc(N[C@@H](c3ccc(F)cc3)c3c[nH]nn3)cc2c1NCc1nccs1 [Example 402, (S)-8-chloro-6-(((4-fluorophenyl)(1H-1,2,3-triazol-4-yl)methyl)amino)-4-((thiazol-2-ylmethyl)amino)quinoline-3-carbonitrile]
532	15	–	CC1(n2cc([C@@H](Nc3cc(Cl)c4ncc(C#N)c(Nc5cnc(F)c(F)c5)c4c3)c3ccc(F)cc3)nn2)COC1 [Example 403, (S)-8-chloro-4-((5,6-difluoropyridin-3-yl)amino)-6-(((4-fluorophenyl) (1-(3-methyloxetan-3-yl)-1H-1,2,3-triazol-4-yl)methyl)amino)quinoline-3-carbonitrile]
570	–	34	N#Cc1cnc2c(Cl)cc(N[C@H](c3c[nH]nn3)c3ccccc3C(F)F)cc2c1Nc1cnc(F)c(F)c1 [Example 404, (S)-8-chloro-6-(((2-(difluoromethyl)phenyl) (1H-1,2,3-triazol-4-yl)methyl)amino)-4-((5,6-difluoropyridin-3-yl)amino)quinoline-3-carbonitrile]
2300	–	69	N#Cc1cnc2c(Cl)cc(N[C@@H](c3ccc(F)cc3)c3cn(CC4(F)COC4)nn3)cc2c1Nc1cnc(F)c(F)c1 [Example 405, (S)-8-chloro-4-((5,6-difluoropyridin-3-yl)amino)-6-(((1-((3-fluorooxetan-3-yl)methyl)-1H-1,2,3-triazol-4-yl)(4-fluorophenyl)methyl)amino) quinoline-3-carbonitrile]
4430	–	212	C[C@@H](n1cc([C@@H](Nc2cc(Cl)c3ncc(C#N)c(Nc4cnc(F)c(F)c4)c3c2)c2ccc(F)cc2)nn1)C(F)(F)F [Example 406, 8-chloro-4-((5,6-difluoropyridin-3-yl)amino)-6-(((S)-(4-fluorophenyl)(1-((R)-1,1,1-trifluoropropan-2-yl)-1H-1,2,3-triazol-4-yl)methyl)amino)quinoline-3-carbonitrile]
1530	–	47	CC(C(F)F)n1cc([C@@H](Nc2cc(Cl)c3ncc(C#N)c(Nc4cnc(F)c(F)c4)c3c2)c2ccc(F)cc2)nn1 (stereo partly drawn) [Example 407, 8-chloro-6-(((1S)-(1-(1,1-difluoropropan-2-yl)-1H-1,2,3-triazol-4-yl)(4-fluorophenyl)methyl)amino)-4-((5,6-difluoropyridin-3-yl)amino)quinoline-3-carbonitrile]
779	–	41	N#Cc1cnc2c(Cl)cc(N[C@@H](c3ccc(F)cc3)c3cn(-c4ccccc4)nn3)cc2c1Nc1cnc(F)c(F)c1 [Example 408, (S)-8-chloro-4-((5,6-difluoropyridin-3-yl)amino)-6-(((4-fluorophenyl) (1-phenyl-1H-1,2,3-triazol-4-yl)methyl)amino)quinoline-3-carbonitrile]
776	–	23	N#Cc1cnc2c(Cl)cc(N[C@@H](c3ccc(F)cc3)c3cn(CC(F)F)nn3)cc2c1Nc1cnc(F)c(F)c1 [Example 409, (S)-8-chloro-6-(((1-(2,2-difluoroethyl)-1H-1,2,3-triazol-4-yl)(4-fluorophenyl)methyl)amino)-4-((5,6-difluoropyridin-3-yl)amino)quinoline-3-carbonitrile]
723	–	30	N#CCn1cc([C@@H](Nc2cc(Cl)c3ncc(C#N)c(Nc4cnc(F)c(F)c4)c3c2)c2ccc(F)cc2)nn1 [Example 410, (S)-8-chloro-6-(((1-(cyanomethyl)-1H-1,2,3-triazol-4-yl)(4-fluorophenyl)methyl)amino)-4-((5,6-difluoropyridin-3-yl)amino)quinoline-3-carbonitrile]
3410	–	111	CC(C)(C)Cn1cc([C@@H](Nc2cc(Cl)c3ncc(C#N)c(Nc4cnc(F)c(F)c4)c3c2)c2ccc(F)cc2)nn1 [Example 411, (S)-8-chloro-4-((5,6-difluoropyridin-3-yl)amino)-6-(((4-fluorophenyl)(1-neopentyl-1H-1,2,3-triazol-4-yl)methyl)amino)quinoline-3-carbonitrile]
2220	–	50	CC1(Cn2cc([C@@H](Nc3cc(Cl)c4ncc(C#N)c(Nc5cnc(F)c(F)c5)c4c3)c3ccc(F)cc3)nn2)CC1 [Example 412, (S)-8-chloro-4-((5,6-difluoropyridin-3-yl)amino)-6-(((4-fluorophenyl)(1-((1-methylcyclopropyl)methyl)-1H-1,2,3-triazol-4-yl)methyl)amino)quinoline-3-carbonitrile]
